Reference: PubChem BioAssay (NCI)
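Assay format: 96-well plates, 48-hour exposure. At the TGI there is no net growth.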

Experiments:
Assay in all cases: NCI tumour cell line growth inhibition, 48 h
[1] = system: 786-0 renal
[2] = system: A498 renal
[3] = system: A549 NSCLC
[4] = system: ACHN renal
[5] = system: BT-549 breast
[6] = system: CAKI-1 renal
[7] = system: CCRF-CEM leukemia
[8] = system: COLO 205 colon
[9] = system: DU-145 prostate
[10] = system: EKVX NSCLC
[11] = system: HCC-2998 colon
[12] = system: HCT-116 colon
[13] = system: HCT-15 colon
[14] = system: HL-60(TB) leukemia
[15] = system: HOP-62 NSCLC
[16] = system: HOP-92 NSCLC
[17] = system: HS 578T breast
[18] = system: HT29 colon
[19] = system: IGROV1 ovarian
[20] = system: K-562 leukemia
[21] = system: KM12 colon
[22] = system: LOX IMVI melanoma
[23] = system: M14 melanoma
[24] = system: MALME-3M melanoma
[25] = system: MCF7 breast
[26] = system: MDA-MB-231 breast
[27] = system: MDA-MB-435
[28] = system: MDA-N
[29] = system: MOLT-4 leukemia
[30] = system: NCI-H226 lung
[31] = system: NCI-H23 lung
[32] = system: NCI-H460 lung
[33] = system: NCI-H522 lung
[34] = system: NCI/ADR-RES ovarian
[35] = system: OVCAR-3 ovarian
[36] = system: OVCAR-4 ovarian
[37] = system: OVCAR-5 ovarian
[38] = system: OVCAR-8 ovarian
[39] = system: PC-3 prostate
[40] = system: SF-268 CNS
[41] = system: SF-295 CNS
[42] = system: SF-539 CNS
[43] = system: SK-MEL-28 melanoma
[44] = system: SK-MEL-5 melanoma
[45] = system: SK-OV-3 ovarian
[46] = system: SN12C renal
[47] = system: SNB-19 CNS
[48] = system: SR leukemia
[49] = system: SW-620 colon
[50] = system: T-47D breast
[51] = system: TK-10 renal
[52] = system: U251 CNS
[53] = system: UACC-257 melanoma
[54] = system: UACC-62 melanoma
[55] = system: UO-31 renal

Measured: TGI

O=C1C=C(N2CCN(c3ncccn3)CC2)C(=O)c2c(O)ccc(O)c21
24.3 µM: [27]
46.6 µM: [24]
55.7 µM: [42]
31.3 µM: [28]
> 100 µM: all other assays above
